Converted amounts (≈) assume the structure as drawn.
Tests used:
MCF7 = assay: Cytotoxicity against human MCF7 cells; type: functional; conditions: read-out: ED50 (the source's name)
Lu1 = assay: Cytotoxicity against human Lu1 cells; type: functional; conditions: read-out: ED50 (the source's name)
[1] = Cytotoxicity against human HUVEC; type: cell-based; conditions: HUVEC cells, read-out: ED50 (the source's name)
LNCaP = assay: Cytotoxicity against human LNCAP cells; type: functional; conditions: read-out: ED50 (the source's name)

Row | SMILES | EC50 (MCF7) | EC50 (Lu1) | CC50 [1] | EC50 (LNCaP)
1 | CC1(C)CC[C@]2(CO)CC[C@]3(C)C(=CC[C@@H]4[C@@]5(C)CC[C@H](O[C@@H]6O[C@H](CO)[C@@H](O)[C@H](O[C@@H]7OC[C@H](O)[C@H](O)[C@H]7O)[C@H]6O[C@@H]6O[C@H](CO)[C@@H](O)[C@H](O)[C@H]6O)C(C)(C)[C@@H]5CC[C@]43C)[C@@H]2C1 [NEPHELIOSIDE II] | > 20 µg/mL | > 20 µg/mL | > 20 µg/mL | > 20 µg/mL
2 | CC1(C)CC[C@]2(C)[C@@H](O)C[C@]3(C)C(=CC[C@@H]4[C@@]5(C)CC[C@H](O[C@@H]6OC[C@@H](O)[C@H](O[C@@H]7OC[C@H](O)[C@H](O)[C@H]7O)[C@H]6O[C@@H]6O[C@H](CO)[C@@H](O)[C@H](O)[C@H]6O)C(C)(C)[C@@H]5CC[C@]43C)[C@@H]2C1 [NEPHELIOSIDE V] | 13.9 µg/mL (≈ 16 µM) | 13.6 µg/mL (≈ 15.6 µM) | 17.7 µg/mL (≈ 20.4 µM) | 11.7 µg/mL (≈ 13.5 µM)
3 | CC(=O)OC[C@H]1O[C@@H](O[C@@H]2[C@@H](O)[C@H](O[C@H]3CC[C@]4(C)[C@H]5CC=C6[C@@H]7CC(C)(C)CC[C@]7(CO)CC[C@@]6(C)[C@]5(C)CC[C@H]4C3(C)C)OC[C@H]2O)[C@H](O)[C@@H](O)[C@@H]1O | > 20 µg/mL | > 20 µg/mL | > 20 µg/mL | > 20 µg/mL
4 | CC1(C)CC[C@]2(C)[C@@H](O)C[C@]3(C)C(=CC[C@@H]4[C@@]5(C)CC[C@H](O[C@@H]6O[C@H](CO)[C@@H](O)[C@H](O[C@@H]7OC[C@H](O)[C@H](O)[C@H]7O)[C@H]6O[C@@H]6O[C@H](CO)[C@@H](O)[C@H](O)[C@H]6O)C(C)(C)[C@@H]5CC[C@]43C)[C@@H]2C1 [NEPHELIOSIDE VI] | > 20 µg/mL | > 20 µg/mL | > 20 µg/mL | > 20 µg/mL
5 | CC1(C)CC[C@]2(CO)CC[C@]3(C)C(=CC[C@@H]4[C@@]5(C)CC[C@H](O[C@@H]6OC[C@@H](O)[C@H](O[C@@H]7OC[C@H](O)[C@H](O)[C@H]7O)[C@H]6O[C@@H]6O[C@H](CO)[C@@H](O)[C@H](O)[C@H]6O)C(C)(C)[C@@H]5CC[C@]43C)[C@@H]2C1 [NEPHELIOSIDE I] | > 20 µg/mL | 19.5 µg/mL (≈ 22.4 µM) | > 20 µg/mL | > 20 µg/mL
6 | CO[C@@H]1C[C@H]2C(C)(C)[C@@H](O[C@@H]3O[C@H](CO)[C@@H](O)[C@H](O[C@@H]4OC[C@H](O)[C@H](O)[C@H]4O)[C@H]3O[C@@H]3O[C@H](CO)[C@@H](O)[C@H](O)[C@H]3O)CC[C@]2(C)[C@H]2CC=C3[C@@H]4CC(C)(C)CC[C@]4(CO)CC[C@@]3(C)[C@@]21C [NEPHELIOSIDE IV] | > 20 µg/mL | > 20 µg/mL | > 20 µg/mL | > 20 µg/mL

Source: ChEMBL document CHEMBL1146478, “Saponins from the bark of Nephelium maingayi” (J Nat Prod, 2004)
